Measurements as given in patent US20230158084A1, “PROBIOTICS, METABOLITES, AND USES THEREOF” (California Institute of Technology, priority 2018, published 2023).

Test system: BTBR mice
Assay: Open field testing (OFT), BTBR mice given metabolites
Format: in vivo, mouse
Conditions: BTBR offspring; 10 mM in drinking water before mating and throughout lifetime (prenatal administration); vs untreated vehicle controls
Experimental: FIGS. 5A-D are a series of drawings illustrating that differential metabolites impact ASD-relevant behaviors in SPF mice in accordance with some embodiments herein. FIG. 5A: The abundance of select metabolites in the offspring microbiome is correlated with behavior of male offspring. Spearman correlation between the microbiome and mouse behavior, by donor (See FIGS. 1A-0). […] Color scale denotes Spearman ρ. […] Groups of mice were orally administered 10 mM Taurine or 5AV in drinking water before mating, and throughout their lifetime. Offspring were tested by marble burying, direct social interaction, and open field tests, and compared to untreated vehicle controls. Results are aggregated from 2 independent experiments. NControl=42, […]=52, NTaurine=36. […] Open field testing (OFT)-OFT, as a measure for locomotion and anxiety, was performed in 50×50 cm^2 white plexiglas arenas, recorded using an overhead camera, and tracked and analyzed using the EthoVision XT 10 software package (Noldus Information Technology). […] The distance traveled, as well as the number of entries and time spend in a 30×30 cm^2 center square, were analyzed by the EthoVision software. […] As such, it will be appreciated that at a given stage of development, some molecules may readily pass through the blood brain barrier, while others may not.

NCCS(=O)(=O)O [taurine]
anxiety, as measured by center duration in the OFT: reduces anxiety
